DC50, Emax and concentration data for 5 compounds are collected here from ChEMBL document CHEMBL5518240 (J Med Chem, 2024).

One may read the DC50 as the concentration at which degradation of the target reaches its halfway point. By Emax is commonly meant the size of the effect at its maximum, as opposed to the concentration needed.

One series has as its target T1, Protein cereblon/CREB-binding protein (Homo sapiens, UniProt Q92793+Q96SW2). Briefly: PROTAC activity at CBP/CRBN in human VCaP cells assessed as protein degradation incubated for 4 hrs by Western blot analysis.
Conditions: not given
It is filed as cell-based. Background: In western blotting, separated proteins are transferred to a membrane and probed.
For `CC(=O)N1CCc2c(c(N3CCCc4cc(-c5cnn(C)c5)c(C(F)F)cc43)nn2C2CCN(C(=O)CCNc3cccc4c3C(=O)N(C3CCC(=O)NC3=O)C4=O)CC2)C1` (centres undefined), the half-maximal degradation concentration (DC50) is 8 nM.

As for `CC(=O)N1CCc2c(c(N3CCCc4cc(-c5cnn(C)c5)c(C(F)F)cc43)nn2C2CCN(C3CCN(c4ccc5c(c4)C(=O)N(C4CCC(=O)NC4=O)C5=O)CC3)CC2)C1` (centres undefined), the half-maximal degradation concentration (DC50) came to 1.1 nM.

For the compound `CC(=O)N1CCc2c(c(N3CCCc4cc(-c5cnn(C)c5)c(C(F)F)cc43)nn2C2CCN(C3CC4(C3)CN(c3ccc5c(c3)C(=O)N(C3CCC(=O)NC3=O)C5=O)C4)CC2)C1` (centres undefined), the DC50 was found to be 0.5 nM.

In the case of `CC(=O)N1CCc2c(c(N3CCCc4cc(-c5cnn(C)c5)c(C(F)F)cc43)nn2C2CCN(C(=O)CNc3ccc4c(c3)C(=O)N(C3CCC(=O)NC3=O)C4=O)CC2)C1` (centres undefined), the DC50 is 0.7 nM.

Regarding `CC(=O)N1CCc2c(c(N3CCCc4cc(-c5cnn(C)c5)c(C(F)F)cc43)nn2C2CCN(C(=O)CCCCNc3ccc4c(c3)C(=O)N(C3CCC(=O)NC3=O)C4=O)CC2)C1` (centres undefined), the DC50 was 0.4 nM.

The next series concerns the target T1, Protein cereblon/CREB-binding protein. The series is described as follows: PROTAC activity at CBP/CRBN in human VCaP cells assessed as maximal protein degradation at 1 uM incubated for 4 hrs by Western blot analysis relative to control. It is filed as cell-based.
Conditions: not given
In the case of `CC(=O)N1CCc2c(c(N3CCCc4cc(-c5cnn(C)c5)c(C(F)F)cc43)nn2C2CCN(C(=O)CCNc3cccc4c3C(=O)N(C3CCC(=O)NC3=O)C4=O)CC2)C1` (centres undefined), the maximal response (Emax) was found to be 88%.

Turning to `CC(=O)N1CCc2c(c(N3CCCc4cc(-c5cnn(C)c5)c(C(F)F)cc43)nn2C2CCN(C3CCN(c4ccc5c(c4)C(=O)N(C4CCC(=O)NC4=O)C5=O)CC3)CC2)C1` (centres undefined), the Emax is greater than 95%.

For the compound `CC(=O)N1CCc2c(c(N3CCCc4cc(-c5cnn(C)c5)c(C(F)F)cc43)nn2C2CCN(C3CC4(C3)CN(c3ccc5c(c3)C(=O)N(C3CCC(=O)NC3=O)C5=O)C4)CC2)C1` (centres undefined), the Emax was greater than 95%.

Turning to `CC(=O)N1CCc2c(c(N3CCCc4cc(-c5cnn(C)c5)c(C(F)F)cc43)nn2C2CCN(C(=O)CNc3ccc4c(c3)C(=O)N(C3CCC(=O)NC3=O)C4=O)CC2)C1` (centres undefined), the Emax is greater than 95%.

On to `CC(=O)N1CCc2c(c(N3CCCc4cc(-c5cnn(C)c5)c(C(F)F)cc43)nn2C2CCN(C(=O)CCCCNc3ccc4c(c3)C(=O)N(C3CCC(=O)NC3=O)C4=O)CC2)C1` (centres undefined), for which the Emax is greater than 95%.

In another series the target is T2, Protein cereblon/Histone acetyltransferase p300 (Homo sapiens, UniProt Q09472+Q96SW2). Briefly: PROTAC activity at p300/CRBN in human VCaP cells assessed as protein degradation incubated for 4 hrs by Western blot analysis. Type of series: cell-based.
Conditions: not given
On to `CC(=O)N1CCc2c(c(N3CCCc4cc(-c5cnn(C)c5)c(C(F)F)cc43)nn2C2CCN(C(=O)CCNc3cccc4c3C(=O)N(C3CCC(=O)NC3=O)C4=O)CC2)C1` (centres undefined), for which the DC50 stood at 18 nM.

For `CC(=O)N1CCc2c(c(N3CCCc4cc(-c5cnn(C)c5)c(C(F)F)cc43)nn2C2CCN(C3CCN(c4ccc5c(c4)C(=O)N(C4CCC(=O)NC4=O)C5=O)CC3)CC2)C1` (centres undefined), the half-maximal degradation concentration (DC50) was found to be 0.6 nM.

Turning to `CC(=O)N1CCc2c(c(N3CCCc4cc(-c5cnn(C)c5)c(C(F)F)cc43)nn2C2CCN(C3CC4(C3)CN(c3ccc5c(c3)C(=O)N(C3CCC(=O)NC3=O)C5=O)C4)CC2)C1` (centres undefined), the DC50 was 0.4 nM.

Consider `CC(=O)N1CCc2c(c(N3CCCc4cc(-c5cnn(C)c5)c(C(F)F)cc43)nn2C2CCN(C(=O)CNc3ccc4c(c3)C(=O)N(C3CCC(=O)NC3=O)C4=O)CC2)C1` (centres undefined), for which the DC50 turned out to be 2 nM.

Regarding `CC(=O)N1CCc2c(c(N3CCCc4cc(-c5cnn(C)c5)c(C(F)F)cc43)nn2C2CCN(C(=O)CCCCNc3ccc4c(c3)C(=O)N(C3CCC(=O)NC3=O)C4=O)CC2)C1` (centres undefined), the 50% degradation concentration (DC50) came out at 0.4 nM.

In the next series the target is T2, Protein cereblon/Histone acetyltransferase p300. The series is described as follows: PROTAC activity at p300/CRBN in human VCaP cells assessed as maximal protein degradation at 1 uM incubated for 4 hrs by Western blot analysis relative to control. Type of series: cell-based.
Conditions: not given
Target sequence in this assay (Q09472 2-2414 limits assumed): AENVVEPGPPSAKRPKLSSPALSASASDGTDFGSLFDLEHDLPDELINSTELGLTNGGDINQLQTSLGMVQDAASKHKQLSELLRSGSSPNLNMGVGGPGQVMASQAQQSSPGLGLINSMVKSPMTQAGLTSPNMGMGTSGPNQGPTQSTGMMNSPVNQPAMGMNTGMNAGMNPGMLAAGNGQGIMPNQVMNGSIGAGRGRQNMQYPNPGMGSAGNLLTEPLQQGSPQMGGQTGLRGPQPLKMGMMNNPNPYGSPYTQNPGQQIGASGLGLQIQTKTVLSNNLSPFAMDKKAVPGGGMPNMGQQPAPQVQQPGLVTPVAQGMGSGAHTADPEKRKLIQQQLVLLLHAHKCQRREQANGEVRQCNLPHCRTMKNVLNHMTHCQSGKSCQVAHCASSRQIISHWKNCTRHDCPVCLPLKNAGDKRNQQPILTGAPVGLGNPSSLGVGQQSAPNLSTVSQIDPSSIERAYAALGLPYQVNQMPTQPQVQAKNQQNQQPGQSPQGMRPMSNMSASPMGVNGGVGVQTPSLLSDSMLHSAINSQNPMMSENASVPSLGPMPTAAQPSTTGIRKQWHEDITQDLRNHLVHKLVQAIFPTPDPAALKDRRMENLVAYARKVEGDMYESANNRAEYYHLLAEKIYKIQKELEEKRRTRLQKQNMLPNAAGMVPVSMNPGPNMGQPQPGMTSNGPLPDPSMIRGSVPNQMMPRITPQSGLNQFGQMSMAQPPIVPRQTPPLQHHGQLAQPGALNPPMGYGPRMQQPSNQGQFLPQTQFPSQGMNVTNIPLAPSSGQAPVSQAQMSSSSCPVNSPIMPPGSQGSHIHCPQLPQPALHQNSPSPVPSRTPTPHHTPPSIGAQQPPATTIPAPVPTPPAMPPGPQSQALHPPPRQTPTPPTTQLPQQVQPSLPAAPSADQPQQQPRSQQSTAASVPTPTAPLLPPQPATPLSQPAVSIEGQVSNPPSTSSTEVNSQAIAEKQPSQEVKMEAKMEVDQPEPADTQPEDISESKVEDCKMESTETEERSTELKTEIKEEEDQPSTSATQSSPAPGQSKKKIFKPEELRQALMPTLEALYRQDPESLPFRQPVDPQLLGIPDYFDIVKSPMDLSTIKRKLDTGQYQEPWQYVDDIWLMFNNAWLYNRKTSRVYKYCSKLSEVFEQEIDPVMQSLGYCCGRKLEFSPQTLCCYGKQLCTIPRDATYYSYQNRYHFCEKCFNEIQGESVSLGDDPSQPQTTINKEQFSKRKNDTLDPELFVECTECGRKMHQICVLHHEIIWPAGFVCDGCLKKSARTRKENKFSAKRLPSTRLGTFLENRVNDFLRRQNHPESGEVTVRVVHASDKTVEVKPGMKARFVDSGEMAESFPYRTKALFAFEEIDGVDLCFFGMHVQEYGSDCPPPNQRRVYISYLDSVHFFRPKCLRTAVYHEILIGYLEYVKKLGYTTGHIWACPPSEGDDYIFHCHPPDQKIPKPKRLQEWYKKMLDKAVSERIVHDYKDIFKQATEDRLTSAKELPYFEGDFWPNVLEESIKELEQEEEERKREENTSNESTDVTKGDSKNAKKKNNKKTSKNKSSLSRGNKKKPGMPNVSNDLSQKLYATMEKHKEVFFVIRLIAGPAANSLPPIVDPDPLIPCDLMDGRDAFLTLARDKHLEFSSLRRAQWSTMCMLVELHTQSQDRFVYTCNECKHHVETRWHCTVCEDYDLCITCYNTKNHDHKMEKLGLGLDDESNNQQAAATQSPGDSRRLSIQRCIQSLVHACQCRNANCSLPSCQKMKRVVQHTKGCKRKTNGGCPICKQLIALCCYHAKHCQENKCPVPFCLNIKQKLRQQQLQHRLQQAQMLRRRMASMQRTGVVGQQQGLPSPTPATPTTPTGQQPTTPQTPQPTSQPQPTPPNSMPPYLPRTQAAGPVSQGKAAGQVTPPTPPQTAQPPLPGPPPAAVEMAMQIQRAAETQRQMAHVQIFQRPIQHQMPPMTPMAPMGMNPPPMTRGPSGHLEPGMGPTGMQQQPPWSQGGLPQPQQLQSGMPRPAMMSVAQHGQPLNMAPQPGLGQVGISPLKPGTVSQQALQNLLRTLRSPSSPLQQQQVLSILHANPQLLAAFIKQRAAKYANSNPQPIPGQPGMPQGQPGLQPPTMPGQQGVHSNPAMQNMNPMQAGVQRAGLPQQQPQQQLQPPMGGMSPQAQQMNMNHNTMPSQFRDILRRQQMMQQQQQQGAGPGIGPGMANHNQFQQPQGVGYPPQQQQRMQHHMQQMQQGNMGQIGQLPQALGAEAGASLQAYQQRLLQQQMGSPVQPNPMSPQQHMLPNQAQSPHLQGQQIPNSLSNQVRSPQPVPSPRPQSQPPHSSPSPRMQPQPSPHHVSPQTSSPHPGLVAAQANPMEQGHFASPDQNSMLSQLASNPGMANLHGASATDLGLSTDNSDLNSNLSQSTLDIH
Target sequence in this assay (Q96SW2 whole entry partner): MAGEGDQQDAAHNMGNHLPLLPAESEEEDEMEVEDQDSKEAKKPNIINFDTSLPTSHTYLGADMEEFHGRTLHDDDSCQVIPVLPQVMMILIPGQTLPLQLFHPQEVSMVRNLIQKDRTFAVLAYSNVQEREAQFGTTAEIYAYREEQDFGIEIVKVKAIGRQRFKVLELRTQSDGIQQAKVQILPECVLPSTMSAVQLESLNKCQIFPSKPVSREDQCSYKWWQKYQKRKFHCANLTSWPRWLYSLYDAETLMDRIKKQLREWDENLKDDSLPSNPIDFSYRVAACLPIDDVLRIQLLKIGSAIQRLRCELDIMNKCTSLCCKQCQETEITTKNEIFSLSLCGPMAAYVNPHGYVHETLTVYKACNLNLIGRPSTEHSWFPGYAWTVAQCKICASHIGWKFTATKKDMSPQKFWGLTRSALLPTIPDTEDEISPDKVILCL
Take `CC(=O)N1CCc2c(c(N3CCCc4cc(-c5cnn(C)c5)c(C(F)F)cc43)nn2C2CCN(C(=O)CCNc3cccc4c3C(=O)N(C3CCC(=O)NC3=O)C4=O)CC2)C1` (centres undefined): the Emax was 81%.

On to `CC(=O)N1CCc2c(c(N3CCCc4cc(-c5cnn(C)c5)c(C(F)F)cc43)nn2C2CCN(C3CCN(c4ccc5c(c4)C(=O)N(C4CCC(=O)NC4=O)C5=O)CC3)CC2)C1` (centres undefined), for which the Emax was greater than 95%.

In the case of `CC(=O)N1CCc2c(c(N3CCCc4cc(-c5cnn(C)c5)c(C(F)F)cc43)nn2C2CCN(C3CC4(C3)CN(c3ccc5c(c3)C(=O)N(C3CCC(=O)NC3=O)C5=O)C4)CC2)C1` (centres undefined), the maximal response (Emax) was greater than 95%.

On to `CC(=O)N1CCc2c(c(N3CCCc4cc(-c5cnn(C)c5)c(C(F)F)cc43)nn2C2CCN(C(=O)CNc3ccc4c(c3)C(=O)N(C3CCC(=O)NC3=O)C4=O)CC2)C1` (centres undefined), for which the Emax was greater than 95%.

Turning to `CC(=O)N1CCc2c(c(N3CCCc4cc(-c5cnn(C)c5)c(C(F)F)cc43)nn2C2CCN(C(=O)CCCCNc3ccc4c(c3)C(=O)N(C3CCC(=O)NC3=O)C4=O)CC2)C1` (centres undefined), the Emax was greater than 95%.

System in a further series: not listed separately
Briefly: Oral plasma exposure in SCID mouse at 5 mg/kg, po measured after 1 hr. It is filed as ADME, organism-based. The note with it: SCID, plasma.
The compound `CC(=O)N1CCc2c(c(N3CCCc4cc(-c5cnn(C)c5)c(C(F)F)cc43)nn2C2CCN(C3CCN(c4ccc5c(c4)C(=O)N(C4CCC(=O)NC4=O)C5=O)CC3)CC2)C1` (centres undefined) had a concentration at 1 h of 122 ng/mL.

On to `CC(=O)N1CCc2c(c(N3CCCc4cc(-c5cnn(C)c5)c(C(F)F)cc43)nn2C2CCN(C3CC4(C3)CN(c3ccc5c(c3)C(=O)N(C3CCC(=O)NC3=O)C5=O)C4)CC2)C1` (centres undefined), for which the concentration at 1 h came to 183 ng/mL.

`CC(=O)N1CCc2c(c(N3CCCc4cc(-c5cnn(C)c5)c(C(F)F)cc43)nn2C2CCN(C(=O)CNc3ccc4c(c3)C(=O)N(C3CCC(=O)NC3=O)C4=O)CC2)C1` (centres undefined): the concentration at 1 h came out at 2.6 ng/mL.

System in a further series: not listed separately
Briefly: Oral plasma exposure in SCID mouse at 5 mg/kg, po measured after 3 hrs. It is filed as ADME, organism-based. The note with it: SCID, plasma.
On to `CC(=O)N1CCc2c(c(N3CCCc4cc(-c5cnn(C)c5)c(C(F)F)cc43)nn2C2CCN(C3CCN(c4ccc5c(c4)C(=O)N(C4CCC(=O)NC4=O)C5=O)CC3)CC2)C1` (centres undefined), for which the concentration at 3 h turned out to be 122 ng/mL.

As for `CC(=O)N1CCc2c(c(N3CCCc4cc(-c5cnn(C)c5)c(C(F)F)cc43)nn2C2CCN(C3CC4(C3)CN(c3ccc5c(c3)C(=O)N(C3CCC(=O)NC3=O)C5=O)C4)CC2)C1` (centres undefined), the concentration at 3 h was found to be 235 ng/mL.

As for `CC(=O)N1CCc2c(c(N3CCCc4cc(-c5cnn(C)c5)c(C(F)F)cc43)nn2C2CCN(C(=O)CNc3ccc4c(c3)C(=O)N(C3CCC(=O)NC3=O)C4=O)CC2)C1` (centres undefined), the concentration at 3 h was 1.4 ng/mL.

System in another series: not listed separately
The series is described as follows: Oral plasma exposure in SCID mouse at 5 mg/kg, po measured after 6 hrs. Type of series: ADME, organism-based. The note with it: SCID, plasma.
As for `CC(=O)N1CCc2c(c(N3CCCc4cc(-c5cnn(C)c5)c(C(F)F)cc43)nn2C2CCN(C3CCN(c4ccc5c(c4)C(=O)N(C4CCC(=O)NC4=O)C5=O)CC3)CC2)C1` (centres undefined), the concentration at 6 h turned out to be 82.2 ng/mL.

On to `CC(=O)N1CCc2c(c(N3CCCc4cc(-c5cnn(C)c5)c(C(F)F)cc43)nn2C2CCN(C3CC4(C3)CN(c3ccc5c(c3)C(=O)N(C3CCC(=O)NC3=O)C5=O)C4)CC2)C1` (centres undefined), for which the concentration at 6 h was 149 ng/mL.

In turn, `CC(=O)N1CCc2c(c(N3CCCc4cc(-c5cnn(C)c5)c(C(F)F)cc43)nn2C2CCN(C(=O)CNc3ccc4c(c3)C(=O)N(C3CCC(=O)NC3=O)C4=O)CC2)C1` (centres undefined) showed a concentration at 6 h of 1.5 ng/mL.
